Assays:
Cytochrome P450 2E1 [1] = biological target: T1, Cytochrome P450 2E1 (Homo sapiens, UniProt P05181); test: Mechanism based inhibition of human cytochrome P450 2E1 measured by chlorzoxazone 6-hydroxylase activity; assay type: ADME
Cytochrome P450 2C19 [2] = biological target: T2, Cytochrome P450 2C19 (Homo sapiens, UniProt P33261); test: Mechanism based inhibition of human cytochrome P450 2C19 evaluated using Tolbutamide; assay type: ADME
Cytochrome P450 2C8 [3] = biological target: T3, Cytochrome P450 2C8 (Homo sapiens, UniProt P10632); test: Mechanism based inhibition of human cytochrome P450 2C8 using human liver microsomes; assay type: ADME, Microsome
T3 sequence (P10632 whole entry): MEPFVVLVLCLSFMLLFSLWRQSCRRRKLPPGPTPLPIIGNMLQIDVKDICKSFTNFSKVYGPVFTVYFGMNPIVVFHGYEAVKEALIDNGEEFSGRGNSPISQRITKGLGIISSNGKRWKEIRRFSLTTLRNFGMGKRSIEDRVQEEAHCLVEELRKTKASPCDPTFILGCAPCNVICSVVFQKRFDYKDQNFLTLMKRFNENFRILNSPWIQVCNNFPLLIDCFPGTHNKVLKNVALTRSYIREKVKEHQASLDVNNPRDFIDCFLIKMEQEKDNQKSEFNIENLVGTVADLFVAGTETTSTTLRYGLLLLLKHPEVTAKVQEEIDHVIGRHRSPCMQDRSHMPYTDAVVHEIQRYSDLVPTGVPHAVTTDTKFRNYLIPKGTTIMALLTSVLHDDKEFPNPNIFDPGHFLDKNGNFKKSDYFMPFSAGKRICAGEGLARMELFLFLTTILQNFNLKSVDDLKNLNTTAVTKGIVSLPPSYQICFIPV

Cytochrome P450 1A2 [4] = biological target: T4, Cytochrome P450 1A2 (Homo sapiens, UniProt P05177); test: Mechanism based inhibition of human cytochrome P450 1A2 measured by phenacetin O-deethylation (POD); assay type: ADME
T4 sequence (P05177 whole entry): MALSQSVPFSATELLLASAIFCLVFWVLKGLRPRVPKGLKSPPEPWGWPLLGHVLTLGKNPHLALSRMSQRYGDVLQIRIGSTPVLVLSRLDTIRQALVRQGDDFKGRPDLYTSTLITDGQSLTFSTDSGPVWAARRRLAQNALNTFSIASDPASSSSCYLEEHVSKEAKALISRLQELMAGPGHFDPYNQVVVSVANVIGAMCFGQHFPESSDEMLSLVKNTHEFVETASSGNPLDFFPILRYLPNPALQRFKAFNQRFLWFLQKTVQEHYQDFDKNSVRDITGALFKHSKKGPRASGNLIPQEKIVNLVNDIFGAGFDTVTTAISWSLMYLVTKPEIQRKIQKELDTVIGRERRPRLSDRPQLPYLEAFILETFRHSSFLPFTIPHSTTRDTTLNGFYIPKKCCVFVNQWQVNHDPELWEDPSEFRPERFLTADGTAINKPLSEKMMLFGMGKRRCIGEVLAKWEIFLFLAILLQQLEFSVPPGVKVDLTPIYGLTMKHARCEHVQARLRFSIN

Cytochrome P450 2A6 = biological target: T5, Cytochrome P450 2A6 (Homo sapiens, UniProt P11509); test: Mechanism based inhibition of human cytochrome P450 2A6 measured by coumarin 7-hydroxylation; assay type: ADME
T5 sequence (P11509 whole entry): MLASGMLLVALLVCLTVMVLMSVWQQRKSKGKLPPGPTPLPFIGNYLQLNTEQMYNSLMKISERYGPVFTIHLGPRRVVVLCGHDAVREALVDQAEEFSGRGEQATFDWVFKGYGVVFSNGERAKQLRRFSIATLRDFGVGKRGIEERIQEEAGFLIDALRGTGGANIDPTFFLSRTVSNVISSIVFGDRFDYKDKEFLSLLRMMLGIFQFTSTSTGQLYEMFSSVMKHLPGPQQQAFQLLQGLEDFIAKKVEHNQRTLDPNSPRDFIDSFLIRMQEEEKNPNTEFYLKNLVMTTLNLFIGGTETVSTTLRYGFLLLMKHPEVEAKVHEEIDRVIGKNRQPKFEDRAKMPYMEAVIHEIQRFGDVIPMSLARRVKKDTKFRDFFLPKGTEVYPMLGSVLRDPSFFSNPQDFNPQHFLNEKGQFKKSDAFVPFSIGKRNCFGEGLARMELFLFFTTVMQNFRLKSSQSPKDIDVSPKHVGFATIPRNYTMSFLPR

Cytochrome P450 2C8 [5] = biological target: T3, Cytochrome P450 2C8
Description: (§4) Mechanism based inhibition of human cytochrome P450 2C8 measured by paclitaxel hydroxylation using a recombinant system

Cytochrome P450 2B6 [6] = biological target: T6, Cytochrome P450 2B6 (Homo sapiens, UniProt P20813); test: Mechanism based inhibition of human cytochrome P450 2B6; assay type: ADME
T6 sequence (P20813 whole entry): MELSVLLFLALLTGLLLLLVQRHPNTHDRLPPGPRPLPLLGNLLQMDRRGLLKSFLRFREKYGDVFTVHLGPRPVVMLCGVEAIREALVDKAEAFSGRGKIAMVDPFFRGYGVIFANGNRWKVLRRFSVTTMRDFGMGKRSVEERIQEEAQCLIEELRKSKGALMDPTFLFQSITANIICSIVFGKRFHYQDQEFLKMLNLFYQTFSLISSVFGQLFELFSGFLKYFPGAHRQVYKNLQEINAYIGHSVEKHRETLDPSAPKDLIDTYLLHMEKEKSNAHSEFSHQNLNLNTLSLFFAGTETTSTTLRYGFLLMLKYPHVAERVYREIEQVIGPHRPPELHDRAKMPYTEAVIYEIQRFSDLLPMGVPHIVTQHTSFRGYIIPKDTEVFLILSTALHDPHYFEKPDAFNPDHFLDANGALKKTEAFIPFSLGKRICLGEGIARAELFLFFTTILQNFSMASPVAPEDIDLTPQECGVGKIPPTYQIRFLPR

Cytochrome P450 2C19 [7] = biological target: T2, Cytochrome P450 2C19; test: Mechanism based inhibition of human cytochrome P450 2C19; assay type: ADME
Cytochrome P450 2C9 [8] = biological target: T7, Cytochrome P450 2C9 (Homo sapiens, UniProt P11712); test: Mechanism based inhibition of human cytochrome P450 2C9; assay type: ADME
T7 sequence (P11712 whole entry): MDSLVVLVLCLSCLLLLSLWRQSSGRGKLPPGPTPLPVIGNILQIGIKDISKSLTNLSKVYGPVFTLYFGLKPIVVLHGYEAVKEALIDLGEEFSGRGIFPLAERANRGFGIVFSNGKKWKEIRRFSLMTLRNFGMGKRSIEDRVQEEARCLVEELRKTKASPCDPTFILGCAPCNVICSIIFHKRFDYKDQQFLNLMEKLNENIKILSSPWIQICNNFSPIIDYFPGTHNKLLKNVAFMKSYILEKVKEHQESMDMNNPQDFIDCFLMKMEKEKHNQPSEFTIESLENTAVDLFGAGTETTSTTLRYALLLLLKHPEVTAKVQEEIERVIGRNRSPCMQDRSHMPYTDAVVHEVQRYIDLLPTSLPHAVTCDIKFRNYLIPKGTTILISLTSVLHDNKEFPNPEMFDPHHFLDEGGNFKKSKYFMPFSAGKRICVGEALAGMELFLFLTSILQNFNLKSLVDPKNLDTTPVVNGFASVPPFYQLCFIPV

CYP2D6 [9] = biological target: T8, CYP2D6 (Homo sapiens, UniProt P10635); test: (§1) Mechanism based inhibition of human cytochrome P450 2D6 measured by dextromethorphan O-demethylation using human liver microsomes; assay type: ADME, Microsome; conditions: human, human liver microsomes, probe dextromethorphan
T8 sequence (P10635 whole entry): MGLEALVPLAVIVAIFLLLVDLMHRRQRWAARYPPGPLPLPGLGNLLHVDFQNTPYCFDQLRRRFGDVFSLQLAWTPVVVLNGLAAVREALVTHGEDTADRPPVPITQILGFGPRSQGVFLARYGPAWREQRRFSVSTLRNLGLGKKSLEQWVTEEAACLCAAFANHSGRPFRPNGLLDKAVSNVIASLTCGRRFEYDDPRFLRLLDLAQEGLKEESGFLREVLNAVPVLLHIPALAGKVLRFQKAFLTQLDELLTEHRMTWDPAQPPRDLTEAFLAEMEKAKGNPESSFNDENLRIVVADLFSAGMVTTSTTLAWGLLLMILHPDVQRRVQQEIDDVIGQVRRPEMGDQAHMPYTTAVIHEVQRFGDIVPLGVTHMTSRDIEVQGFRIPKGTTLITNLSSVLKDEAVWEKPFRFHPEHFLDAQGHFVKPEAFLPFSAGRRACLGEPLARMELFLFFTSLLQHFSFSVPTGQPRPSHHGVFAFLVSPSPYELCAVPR

Cytochrome P450 2D6 [10] = biological target: T9, Cytochrome P450 2D6 (Homo sapiens, UniProt P10635); test: as §1; assay type: ADME, Microsome
T9 sequence (P10635 whole entry): as above

CYP2D6 [11] = biological target: T8, CYP2D6; test: (§2) Mechanism based inhibition of human cytochrome P450 2D6 measured by dextromethorphan O-demethylation using recombinant CYP2D6; assay type: ADME; conditions: human, recombinant CYP2D6, probe dextromethorphan
Cytochrome P450 2D6 [12] = biological target: T9, Cytochrome P450 2D6; test: as §2; assay type: ADME
Cytochrome P450 3A4 [13] = biological target: T10, Cytochrome P450 3A4 (Homo sapiens, UniProt P08684); test: Mechanism based inhibition of human cytochrome P450 3A4 measured by 1'-hydroxymidazolam production; assay type: ADME
T10 sequence (P08684 whole entry): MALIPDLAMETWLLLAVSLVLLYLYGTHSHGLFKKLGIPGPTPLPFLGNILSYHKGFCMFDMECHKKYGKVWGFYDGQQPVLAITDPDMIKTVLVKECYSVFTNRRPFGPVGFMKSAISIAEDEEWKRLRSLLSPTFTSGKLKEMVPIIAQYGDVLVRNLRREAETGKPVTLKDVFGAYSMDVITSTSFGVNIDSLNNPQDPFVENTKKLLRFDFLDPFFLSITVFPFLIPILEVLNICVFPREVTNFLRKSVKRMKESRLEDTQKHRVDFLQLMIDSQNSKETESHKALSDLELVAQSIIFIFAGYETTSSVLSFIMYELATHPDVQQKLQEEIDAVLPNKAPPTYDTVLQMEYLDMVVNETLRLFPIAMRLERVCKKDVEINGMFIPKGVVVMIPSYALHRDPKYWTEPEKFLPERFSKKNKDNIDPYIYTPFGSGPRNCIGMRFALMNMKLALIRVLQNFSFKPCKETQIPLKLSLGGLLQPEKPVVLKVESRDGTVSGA

Cytochrome P450 2C9 [14] = biological target: T7, Cytochrome P450 2C9; test: Mechanism based inhibition of human cytochrome P450 2C9 measured by Tolbutamide methyl hydroxylation; assay type: ADME
Cytochrome P450 3A4 [15] = biological target: T10, Cytochrome P450 3A4; test: Mechanism based inhibition of human cytochrome P450 3A4 measured by testosterone 6-beta hydroxylation; assay type: ADME
Cytochrome P450 1A2 [16] = biological target: T4, Cytochrome P450 1A2; test: Mechanism based inhibition of human cytochrome P450 1A2 measured by 7-ethoxyresorufin O-deethylation (EROD); assay type: ADME
Cytochrome P450 2C8 [17] = biological target: T3, Cytochrome P450 2C8; remark: listed apart in the source
Description: (§5) Mechanism based inhibition of human cytochrome P450 2C8 measured by paclitaxel hydroxylation using human liver microsomes

CYP2C8 [18] = biological target: T11, CYP2C8 (Homo sapiens, UniProt P10632); test: in vitro; conditions: human liver microsomes, probe paclitaxel
T11 sequence (P10632 whole entry): T3 sequence (P10632 whole entry)
Description: as §5

CYP2C8 [19] = biological target: T11, CYP2C8; test: in vitro; conditions: recombinant CYP2C8, probe paclitaxel
Description: as §4

CYP2E1 = CYP2E1 (Homo sapiens, UniProt P05181); test: (§3) Mechanism based inhibition of human cytochrome P450 2E1; assay type: ADME; conditions: human
CYP2E1, sequence (P05181 whole entry): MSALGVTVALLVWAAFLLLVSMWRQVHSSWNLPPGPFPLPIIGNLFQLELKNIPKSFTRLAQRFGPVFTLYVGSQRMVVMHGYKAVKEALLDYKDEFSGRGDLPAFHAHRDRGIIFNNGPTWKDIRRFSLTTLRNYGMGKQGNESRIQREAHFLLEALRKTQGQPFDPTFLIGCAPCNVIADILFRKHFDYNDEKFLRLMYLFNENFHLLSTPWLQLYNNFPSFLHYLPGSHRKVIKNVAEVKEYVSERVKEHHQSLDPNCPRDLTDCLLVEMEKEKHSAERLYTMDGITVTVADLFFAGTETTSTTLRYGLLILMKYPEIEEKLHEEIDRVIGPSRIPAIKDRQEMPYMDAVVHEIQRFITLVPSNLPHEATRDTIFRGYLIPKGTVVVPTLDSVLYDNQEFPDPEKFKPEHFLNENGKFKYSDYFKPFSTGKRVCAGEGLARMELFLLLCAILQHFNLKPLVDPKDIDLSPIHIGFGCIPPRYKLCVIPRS

Cytochrome P450 2E1 [20] = biological target: T1, Cytochrome P450 2E1; test: as §3; assay type: ADME
Cytochrome P450 2B1 = biological target: T12, Cytochrome P450 2B1 (Rattus norvegicus, UniProt P00176); test: Mechanism based inhibition of rat cytochrome P450 CYP2B1 measured by 7-EFC O-deethylation activity; assay type: ADME; conditions: rat
T12 sequence (P00176 whole entry): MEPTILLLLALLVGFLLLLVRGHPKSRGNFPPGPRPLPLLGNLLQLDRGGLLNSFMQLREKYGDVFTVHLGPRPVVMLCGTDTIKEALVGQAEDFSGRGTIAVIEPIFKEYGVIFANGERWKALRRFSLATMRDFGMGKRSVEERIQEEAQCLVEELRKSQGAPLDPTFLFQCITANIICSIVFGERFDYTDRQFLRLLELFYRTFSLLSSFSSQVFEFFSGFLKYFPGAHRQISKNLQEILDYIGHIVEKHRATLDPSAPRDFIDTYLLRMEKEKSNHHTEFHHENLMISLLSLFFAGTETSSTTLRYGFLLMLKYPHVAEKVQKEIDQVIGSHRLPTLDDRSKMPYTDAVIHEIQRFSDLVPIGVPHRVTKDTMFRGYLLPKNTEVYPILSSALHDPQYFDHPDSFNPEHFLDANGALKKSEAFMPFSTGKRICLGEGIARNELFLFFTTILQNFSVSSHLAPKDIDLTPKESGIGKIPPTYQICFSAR

Cytochrome P450 2C9 [21] = biological target: T7, Cytochrome P450 2C9; test: Mechanism based inhibition of human cytochrome P450 2C9 measured by 7-EFC O-deethylation; assay type: ADME
Cytochrome P450 2B6 [22] = biological target: T6, Cytochrome P450 2B6; test: Mechanism based inhibition of human cytochrome P450 2B6 measured by 7-EFC O-deethylation; assay type: ADME
Cytochrome P450 3A4 [23] = biological target: T10, Cytochrome P450 3A4; test: Mechanism based inhibition of human cytochrome P450 3A4 measured by midazolam 1'-hydroxylation; assay type: ADME

T2 sequence (P33261 whole entry): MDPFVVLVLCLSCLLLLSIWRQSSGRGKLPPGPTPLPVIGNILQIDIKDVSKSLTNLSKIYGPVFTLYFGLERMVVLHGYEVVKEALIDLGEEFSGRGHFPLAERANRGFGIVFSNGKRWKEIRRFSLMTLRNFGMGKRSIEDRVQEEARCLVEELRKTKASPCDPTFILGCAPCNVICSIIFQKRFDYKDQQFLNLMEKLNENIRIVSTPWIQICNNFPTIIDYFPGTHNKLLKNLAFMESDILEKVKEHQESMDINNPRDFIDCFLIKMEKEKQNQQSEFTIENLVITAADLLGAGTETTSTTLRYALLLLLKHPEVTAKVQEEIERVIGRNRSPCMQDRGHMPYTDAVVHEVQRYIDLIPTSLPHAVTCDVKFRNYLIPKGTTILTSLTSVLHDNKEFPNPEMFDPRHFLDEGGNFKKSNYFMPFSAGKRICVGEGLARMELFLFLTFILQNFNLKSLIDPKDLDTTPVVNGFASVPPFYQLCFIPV
T1 sequence (P05181 whole entry): as the sequence (P05181 whole entry) above

FC(F)(F)C(Cl)Br (configuration not stated) [HALOTHANE]
mechanism based inhibition (Cytochrome P450 2E1 [1]): Cytochrome P450 mechanistic inhibitor: PMID 8902272

NNC(=O)c1ccncc1 [ISONIAZID]
Ki (Cytochrome P450 2C19 [2]): 10 µM | Ki (Cytochrome P450 2C8 [3]): 170 µM | Ki (Cytochrome P450 1A2 [4]): 56 µM | Ki (Cytochrome P450 2A6): 60 µM | Ki (Cytochrome P450 2C8 [5]): 374 µM

Cn1cc[nH]c1=S [METHIMAZOLE]
mechanism based inhibition (Cytochrome P450 2B6 [6]): Cytochrome P450 mechanistic inhibitor: PMID 9172960 | mechanism based inhibition (Cytochrome P450 2C19 [7]): Cytochrome P450 mechanistic inhibitor: PMID 9172960 | mechanism based inhibition (Cytochrome P450 2C9 [8]): Cytochrome P450 mechanistic inhibitor: PMID 9172960

CNC(C)Cc1ccc2c(c1)OCO2 (configuration not stated) [MIDOMAFETAMINE]
kinact (CYP2D6 [9]): 0.00283 s⁻¹ | Ki (Cytochrome P450 2D6 [10]): 22.8 µM | kinact (CYP2D6 [11]): 0.00483 s⁻¹ | Ki (Cytochrome P450 2D6 [12]): 12.9 µM

CCc1nn(CCCN2CCN(c3cccc(Cl)c3)CC2)c(=O)n1CCOc1ccccc1 [NEFAZODONE]
mechanism based inhibition (Cytochrome P450 3A4 [13]): Cytochrome P450 mechanistic inhibitor: PMID 15523046

CCOP(=S)(OCC)Oc1ccc([N+](=O)[O-])cc1 [PARATHION]
mechanism based inhibition (Cytochrome P450 2C9 [14]): Cytochrome P450 mechanistic inhibitor: PMID 9023313 | mechanism based inhibition (Cytochrome P450 3A4 [15]): Cytochrome P450 mechanistic inhibitor: PMID 9023313 | mechanism based inhibition (Cytochrome P450 1A2 [16]): Cytochrome P450 mechanistic inhibitor: PMID 9023313

NNCCc1ccccc1 [PHENELZINE]
Ki (Cytochrome P450 2C8 [17]): 54.3 µM | Ki (Cytochrome P450 2C8 [5]): 1.2 µM | kinact (CYP2C8 [18]): 0.00283 s⁻¹ | kinact (CYP2C8 [19]): 0.00405 s⁻¹

S=C=NCCc1ccccc1 [PHENETHYLISOTHIOCYANATE]
kinact (CYP2E1): 0.00565 s⁻¹ | Ki (Cytochrome P450 2E1 [20]): 9.98 µM | mechanism based inhibition (Cytochrome P450 2B1): Cytochrome P450 mechanistic inhibitor: PMID 11454729

COc1cc(C2Oc3cc([C@H]4Oc5cc(O)cc(O)c5C(=O)[C@@H]4O)ccc3OC2CO)ccc1O (some centres not stated) [SILIBININ]
Ki (Cytochrome P450 2C9 [21]): 5 µM

CC/C(=C(\c1ccccc1)c1ccc(OCCN(C)C)cc1)c1ccccc1 [TAMOXIFEN]
Ki (Cytochrome P450 2B6 [22]): 0.9 µM | mechanism based inhibition (Cytochrome P450 3A4 [23]): Cytochrome P450 mechanistic inhibitor
